According to US12077503B2, “Substituted cyclic amides and their use as herbicides” (FMC CORPORATION, priority 2015, dated 2024):

Assays:
Format in all cases: in vivo
Kochia (Kochia scoparia) [1] = assay: Test A preemergence
In short: (§1)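 In a loam soil and sand blend, planted seeds got a preemergence directed soil spray, and young plants at the one- to two-leaf stage, 2–10 cm high, got a postemergence application; ~10 d greenhouse hold; injury rated visually, 0 = none, 100 = complete control.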

[2] = tested on: barnyardgrass (Echinochloa crus-galli); assay: Test A preemergence
In short: as §1

[3] = tested on: giant foxtail (Setaria faberii); assay: Test A preemergence
In short: as §1

[4] = tested on: pigweed (Amaranthus retroflexus); assay: Test A preemergence
[5] = tested on: ragweed (common ragweed, Ambrosia elatior); assay: Test A preemergence
In short: as §1

[6] = tested on: ryegrass, Italian (Italian ryegrass, Lolium multiflorum); assay: Test A preemergence
In short: as §1

[7] = tested on: Galium (catchweed bedstraw, Galium aparine); assay: Test A postemergence; details: postemergence
In short: as §1

Kochia (Kochia scoparia) [8] = assay: Test A postemergence; details: postemergence
In short: as §1

[9] = tested on: barnyardgrass (Echinochloa crus-galli); assay: Test A postemergence; details: postemergence
In short: as §1

[10] = tested on: blackgrass (Alopecurus myosuroides); assay: Test A postemergence; details: postemergence
In short: as §1

corn (Zea mays) = assay: Test A postemergence; details: postemergence
In short: as §1

[11] = tested on: giant foxtail (Setaria faberii); assay: Test A postemergence; details: postemergence
In short: as §1

[12] = tested on: pigweed (Amaranthus retroflexus); assay: Test A postemergence; details: postemergence
In short: as §1

[13] = tested on: ragweed (common ragweed, Ambrosia elatior); assay: Test A postemergence; details: postemergence
In short: as §1

[14] = tested on: ryegrass, Italian (Italian ryegrass, Lolium multiflorum); assay: Test A postemergence; details: postemergence
In short: as §1

[15] = tested on: wheat (Triticum aestivum); assay: Test A postemergence; details: postemergence
In short: as §1

[16] = tested on: barnyardgrass (Echinochloa crus-galli); assay: Test B flooded paddy test; details: Flood, 500 g ai/ha; 0 to 100 scale where 0 is no effect and 100 is complete control; 13 to 15 d
In short: (§2)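 Evaluation by eye, against controls, occurred 13–15 d post-treatment in a greenhouse, using a 0 (no effect) to 100 (complete control) scale. Application was into the paddy water, 3 cm deep over the soil, on 2-leaf plants.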

[17] = tested on: ducksalad (Heteranthera limosa); assay: Test B flooded paddy test; details: Flood, 500 g ai/ha; 0 to 100 scale where 0 is no effect and 100 is complete control; 13 to 15 d
In short: as §2

rice (Oryra sativa) = assay: Test B flooded paddy test; details: Flood, 500 g ai/ha; 0 to 100 scale where 0 is no effect and 100 is complete control; 13 to 15 d
In short: as §2

[18] = tested on: sedge, umbrella (small-flower umbrella sedge, Cyperus difformis); assay: Test B flooded paddy test; details: Flood, 500 g ai/ha; 0 to 100 scale where 0 is no effect and 100 is complete control; 13 to 15 d
In short: as §2

[19] = 125 g ai/ha, preemergence, 0 to 100 scale (0 no effect, 100 complete control)
[20] = Preemergence, 500 g ai/ha, visual injury approx. 10 d
[21] = 125 g ai/ha, visual injury rating on 0 to 100 scale (0 no effect, 100 complete control), approx. 10 d
[22] = 500 g ai/ha, 0 to 100 scale, 0 no effect, 100 complete control

## COc1c(F)ccc(NC(=O)C2C(=O)NCC2c2ccc(F)c(F)c2)c1F (stereo not drawn) [Compound 419]
Kochia (Kochia scoparia) [1]; [19]
  Plant response rating, Kochia: 0
Kochia (Kochia scoparia) [1]; [20]
  Kochia plant response rating (0 to 100 scale, 0 is no effect, 100 is complete control): 0
[2]; [19]
  Plant response rating, Barnyardgrass: 60
[2]; [20]
  Barnyardgrass plant response rating (0 to 100 scale, 0 is no effect, 100 is complete control): 90
[3]; [19]
  Plant response rating, Foxtail, Giant: 80
[3]; [20]
  Foxtail, Giant plant response rating (0 to 100 scale, 0 is no effect, 100 is complete control): 90
[4]; [19]
  Plant response rating, Pigweed: 0
[4]; [20]
  Pigweed plant response rating (0 to 100 scale, 0 is no effect, 100 is complete control): 20
[5]; [19]
  Plant response rating, Ragweed: 0
[5]; [20]
  Ragweed plant response rating (0 to 100 scale, 0 is no effect, 100 is complete control): 0
[6]; [19]
  Plant response rating, Ryegrass, Italian: 0
[6]; [20]
  Ryegrass, Italian plant response rating (0 to 100 scale, 0 is no effect, 100 is complete control): 0
[7]; [21]
  Galium plant response rating: 0
[7]; [22]
  Plant response rating, Galium: 0
Kochia (Kochia scoparia) [8]; [21]
  Kochia plant response rating: 20
Kochia (Kochia scoparia) [8]; [22]
  Plant response rating, Kochia: 20
[9]; [21]
  Barnyardgrass plant response rating: 60
[9]; [22]
  Plant response rating, Barnyardgrass: 80
[10]; [21]
  Blackgrass plant response rating: 0
[10]; [22]
  Plant response rating, Blackgrass: 0
Corn (Zea mays); [21]
  Corn plant response rating: 0
Corn (Zea mays); [22]
  Plant response rating, Corn: 20
[11]; [21]
  Foxtail, Giant plant response rating: 20
[11]; [22]
  Plant response rating, Foxtail, Giant: 90
[12]; [21]
  Pigweed plant response rating: 0
[12]; [22]
  Plant response rating, Pigweed: 0
[13]; [21]
  Ragweed plant response rating: 0
[13]; [22]
  Plant response rating, Ragweed: 0
[14]; [21]
  Ryegrass, Italian plant response rating: 0
[14]; [22]
  Plant response rating, Ryegrass, Italian: 20
[15]; [21]
  Wheat plant response rating: 0
[15]; [22]
  Plant response rating, Wheat: 20
[16]
  Plant response rating, Barnyardgrass: 40
[17]
  Plant response rating, Ducksalad: 50
Rice (Oryra sativa)
  Plant response rating, Rice: 0
[18]
  Plant response rating, Sedge, Umbrella: 0
